Measured values reported in article PMC8981238, “C-type cytochrome-initiated reduction of bacterial lytic polysaccharide monooxygenases” (Biochemical Journal, 2021).

Molecular target: T1, CfAA10 (Cellulomonas fimi, UniProt F4H6A3)
T1 construct: gene Celf_0270; apparently with its C-terminal CBM (truncation told only for the C. japonicus enzyme)
Experiment: Amplex Red / horseradish peroxidase coupled H2O2 production, initial rates
Assay type: biochemical
Settings: reductant varied, no polysaccharide, O2 from air, 50 mM sodium phosphate pH 6.0, room temperature, 2 µM LPMO

T1 sequence (F4H6A3 entry or part of it): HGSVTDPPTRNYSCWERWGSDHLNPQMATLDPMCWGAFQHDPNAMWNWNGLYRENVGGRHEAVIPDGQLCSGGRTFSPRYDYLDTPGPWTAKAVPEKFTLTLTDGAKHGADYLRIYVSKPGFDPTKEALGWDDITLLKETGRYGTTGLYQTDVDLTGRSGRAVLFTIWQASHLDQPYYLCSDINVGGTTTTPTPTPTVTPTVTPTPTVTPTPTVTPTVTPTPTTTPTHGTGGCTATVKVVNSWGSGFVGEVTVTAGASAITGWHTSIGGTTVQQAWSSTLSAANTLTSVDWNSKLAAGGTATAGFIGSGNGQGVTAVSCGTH

For `O=C1O[C@H]([C@@H](O)CO)C(O)=C1O` [ascorbate], the KM was “KM is consistently lower when CjX183 is used as the reductant compared with ascorbate”.
